Results from BigSolDB 2.1.

Oc1ccc(OCc2ccccc2)cc1
solubility (mole fraction)
Details | 283.15 K | 288.15 K | 293.15 K | 298.15 K | 303.15 K | 308.15 K | 313.15 K | 318.15 K | 323.15 K | 328.15 K
in ethanol | 0.0483 | 0.056 | 0.0644 | 0.0737 | 0.0846 | 0.0956 | 0.109 | 0.123 | 0.137 | 0.155
in ethylene glycol | 0.0053 | 0.00664 | 0.00822 | 0.0101 | 0.0125 | 0.0149 | 0.018 | 0.0216 | 0.0257 | 0.0302
in isopropanol | 0.0217 | 0.0261 | 0.0308 | 0.0365 | 0.0425 | 0.0503 | 0.0583 | 0.0671 | 0.0778 | 0.0896
in n-propanol | 0.0381 | 0.0446 | 0.052 | 0.0605 | 0.0702 | 0.0804 | 0.0931 | 0.106 | 0.12 | 0.137
in water | 3.57e-06 | 4.49e-06 | 5.64e-06 | 7.04e-06 | 8.71e-06 | 1.07e-05 | 1.3e-05 | 1.57e-05 | 1.91e-05 | 2.29e-05
